Measurements as given in patent US10668043B2, “Potentiated antimicrobial agents” (priority 2014, dated 2020).
In brackets after ≈: the same amount, converted by molar mass. Read-outs that look alike come from different tables or passages of the source. Blank lines part the entries; values can stand above or below the compound they belong to.

Assays:
[1] = mouse, intravenous; cited from earlier work
[2] = orally; two mammal species (cats and rats); cited from earlier work
Strain 10168/MRSA = assay: Resistance: occurrence of resistant mutants; format: cell-based, S. aureus; settings: 4 times the MIC; 48 h incubation; DMSO
Experimental: (§1) After 48 h incubation, the presence or absence of colonies likely to be resistant mutants is observed.

Strain 9003/BLSE = assay: Resistance: occurrence of resistant mutants; format: cell-based; settings: 4 times the MIC; 48 h incubation; DMSO
Experimental: as §1

Pasteurella = assay: etest on agar containing the booster; format: cell-based
Source text: (§2) The corresponding tests are made based on the usual MIC test: the etest® (Biomerieux) strip is deposited onto the surface of a seeded agar medium in which the booster has been incorporated.
(§3) The control corresponds to the test made without cineol. A control is made in each solvent tested: distilled water, Tween/water and DMSO. • ED control=antibiotic alone in distilled water • DMSO control=antibiotic alone in DMSO • TE control=antibiotic alone in Tween® 80
Other e-tests are also made on Pasteurella.

E. coli = assay: etest on agar containing the booster; format: cell-based; settings: Escherichia coli, Coli 8150
Source text: as §2, with “incorporated. This test enables solvent effect risks, that is a possible interaction with the solvent used in vitro, to be minimised.” for “incorporated.”
as §3

Staphylococcus = assay: etest on agar containing the booster; format: cell-based; settings: MRSA 10178
Source text: as §2, with “incorporated. This test enables solvent effect risks, that is a possible interaction with the solvent used in vitro, to be minimised.” for “incorporated.”
as §3

[3] = strain 14012, 5 mg cineol water
[4] = strain 14012, 10 mg cineol DMSO
[5] = strain 14012, 10 mg cineol water
[6] = DMSO control (antibiotic alone)
[7] = ED control (antibiotic alone in distilled water)
[8] = Tween water control (antibiotic alone)

Structure (SMILES): Cc1ccc(C(C)C)cc1O [carvacrol]
LD 50 [1]: 80 mg/kg
lowest letal dose [2]: 100 mg/kg

Structure (SMILES): O=C(O)c1cn(C2CC2)c2cc(N3CCNCC3)c(F)cc2c1=O [Ciprofloxacin, ciprofloxacin]
colonies likely to be resistant mutants (Strain 10168/MRSA): invaded
colonies likely to be resistant mutants (Strain 9003/BLSE): Numerous
MIC (e-test) (Pasteurella; strain 14012, 5 mg cineol DMSO): 0.004 µg/mL (≈ 0.0121 µM)
MIC (e-test) (Pasteurella; strain 14012, 5 mg cineol TE): 0.004 µg/mL (≈ 0.0121 µM)
MIC (e-test) (Pasteurella; [3]): 0.003 µg/mL (≈ 0.00905 µM)
MIC (e-test) (Pasteurella; [4]): 0.004 µg/mL (≈ 0.0121 µM)
MIC (e-test) (Pasteurella; strain 14012, 10 mg cineol TE): 0.006 µg/mL (≈ 0.0181 µM)
MIC (e-test) (Pasteurella; [5]): 0.004 µg/mL (≈ 0.0121 µM)
MIC (e-test) (Pasteurella; strain 14012, DMSO control): 0.006 µg/mL (≈ 0.0181 µM)
MIC (e-test) (Pasteurella; strain 14012, ED control): 0.004 µg/mL (≈ 0.0121 µM)
MIC (e-test) (Pasteurella; strain 14012, TE control): 0.006 µg/mL (≈ 0.0181 µM)
MIC (e-test) (Pasteurella; strain 14013, 5 mg cineol DMSO): 0.012 µg/mL (≈ 0.0362 µM)
MIC (e-test) (Pasteurella; strain 14013, 5 mg cineol TE): 0.012 µg/mL (≈ 0.0362 µM)
MIC (e-test) (Pasteurella; strain 14013, 5 mg cineol water): 0.012 µg/mL (≈ 0.0362 µM)
MIC (e-test) (Pasteurella; strain 14013, 10 mg cineol DMSO): 0.012 µg/mL (≈ 0.0362 µM)
MIC (e-test) (Pasteurella; strain 14013, 10 mg cineol TE): 0.012 µg/mL (≈ 0.0362 µM)
MIC (e-test) (Pasteurella; strain 14013, 10 mg cineol water): 0.016 µg/mL (≈ 0.0483 µM)
MIC (e-test) (Pasteurella; strain 14013, DMSO control): 0.012 µg/mL (≈ 0.0362 µM)
MIC (e-test) (Pasteurella; strain 14013, ED control): 0.012 µg/mL (≈ 0.0362 µM)
MIC (e-test) (Pasteurella; strain 14013, TE control): 0.016 µg/mL (≈ 0.0483 µM)

MIC (E. coli; Cineol 1 mg DMSO, read-out: MIC): 0.064 µg/mL (≈ 0.167 µM)
MIC (E. coli; Cineol 1 mg Tween/water, read-out: MIC): 0.064 µg/mL (≈ 0.167 µM)
MIC (E. coli; Cineol 4 mg DMSO, read-out: MIC): 0.064 µg/mL (≈ 0.167 µM)
MIC (E. coli; Cineol 4 mg Tween/water, read-out: MIC): 0.047 µg/mL (≈ 0.123 µM)
MIC (E. coli; Cineol 16 mg DMSO, read-out: MIC): 0.064 µg/mL (≈ 0.167 µM)
MIC (E. coli; Cineol 16 mg Tween/water, read-out: MIC): 0.1 µg/mL (≈ 0.261 µM)
MIC (E. coli; DMSO control (antibiotic alone), read-out: MIC): 0.094 µg/mL (≈ 0.245 µM)
MIC (E. coli; ED control (antibiotic alone in distilled water), read-out: MIC): 0.047 µg/mL (≈ 0.123 µM)
MIC (E. coli; Tween water control (antibiotic alone), read-out: MIC): 0.094 µg/mL (≈ 0.245 µM)
MIC (e-test) (Pasteurella; strain 14012, 5 mg cineol DMSO): 0.006 µg/mL (≈ 0.0156 µM)
MIC (e-test) (Pasteurella; strain 14012, 5 mg cineol TE): 0.008 µg/mL (≈ 0.0209 µM)
MIC (e-test) (Pasteurella; [3]): 0.006 µg/mL (≈ 0.0156 µM)
MIC (e-test) (Pasteurella; [4]): 0.006 µg/mL (≈ 0.0156 µM)
MIC (e-test) (Pasteurella; strain 14012, 10 mg cineol TE): 0.008 µg/mL (≈ 0.0209 µM)
MIC (e-test) (Pasteurella; [5]): 0.008 µg/mL (≈ 0.0209 µM)
MIC (e-test) (Pasteurella; strain 14012, DMSO control): 0.008 µg/mL (≈ 0.0209 µM)
MIC (e-test) (Pasteurella; strain 14012, ED control): 0.008 µg/mL (≈ 0.0209 µM)
MIC (e-test) (Pasteurella; strain 14012, TE control): 0.023 µg/mL (≈ 0.06 µM)
MIC (e-test) (Pasteurella; strain 14014, 5 mg cineol DMSO): 0.012 µg/mL (≈ 0.0313 µM)
MIC (e-test) (Pasteurella; strain 14014, 5 mg cineol TE): 0.016 µg/mL (≈ 0.0417 µM)
MIC (e-test) (Pasteurella; strain 14014, 5 mg cineol water): 0.016 µg/mL (≈ 0.0417 µM)
MIC (e-test) (Pasteurella; strain 14014, 10 mg cineol DMSO): 0.016 µg/mL (≈ 0.0417 µM)
MIC (e-test) (Pasteurella; strain 14014, 10 mg cineol TE): 0.012 µg/mL (≈ 0.0313 µM)
MIC (e-test) (Pasteurella; strain 14014, 10 mg cineol water): 0.016 µg/mL (≈ 0.0417 µM)
MIC (e-test) (Pasteurella; strain 14014, DMSO control): 0.016 µg/mL (≈ 0.0417 µM)
MIC (e-test) (Pasteurella; strain 14014, ED Control): 0.012 µg/mL (≈ 0.0313 µM)
MIC (e-test) (Pasteurella; strain 14014, TE control): 0.012 µg/mL (≈ 0.0313 µM)
Structure (SMILES): C[C@@H](O)[C@H]1C(=O)N2C(C(=O)O)=C(S[C@@H]3CN[C@H](C(=O)N(C)C)C3)[C@H](C)[C@H]12 [Meropenem]

Structure (SMILES): CN(C)c1cc(NC(=O)CNC(C)(C)C)c(O)c2c1C[C@H]1C[C@H]3[C@H](N(C)C)C(O)=C(C(N)=O)C(=O)[C@@]3(O)C(O)=C1C2=O [Tigecycline]
MIC (Staphylococcus; Cineol 1 mg DMSO): 0.19 µg/mL (≈ 0.324 µM)
MIC (Staphylococcus; Cineol 1 mg Tween/water): 0.125 µg/mL (≈ 0.213 µM)
MIC (Staphylococcus; Cineol 4 mg DMSO): 0.19 µg/mL (≈ 0.324 µM)
MIC (Staphylococcus; Cineol 4 mg Tween/water): 0.094 µg/mL (≈ 0.161 µM)
MIC (Staphylococcus; Cineol 16 mg DMSO): 0.125 µg/mL (≈ 0.213 µM)
MIC (Staphylococcus; Cineol 16 mg Tween/water): 0.094 µg/mL (≈ 0.161 µM)
MIC (Staphylococcus; [6]): 0.25 µg/mL (≈ 0.427 µM)
MIC (Staphylococcus; [7]): 0.125 µg/mL (≈ 0.213 µM)
MIC (Staphylococcus; [8]): 0.125 µg/mL (≈ 0.213 µM)
MIC (E. coli; Cineol 1 mg DMSO): 0.19 µg/mL (≈ 0.324 µM)
MIC (E. coli; Cineol 1 mg Tween/water): 0.125 µg/mL (≈ 0.213 µM)
MIC (E. coli; Cineol 4 mg DMSO): 0.125 µg/mL (≈ 0.213 µM)
MIC (E. coli; Cineol 4 mg Tween/water): 0.094 µg/mL (≈ 0.161 µM)
MIC (E. coli; Cineol 16 mg DMSO): 0.064 µg/mL (≈ 0.109 µM)
MIC (E. coli; Cineol 16 mg Tween/water): 0.1 µg/mL (≈ 0.171 µM)
MIC (E. coli; [6]): 0.19 µg/mL (≈ 0.324 µM)
MIC (E. coli; [7]): 0.125 µg/mL (≈ 0.213 µM)
MIC (E. coli; [8]): 0.125 µg/mL (≈ 0.213 µM)
